Measured values as given in patent US20060084704A1, “Methods and compositions for enhancing degradation of nuclear receptor transcription factors and uses thereof” (priority 2004, published 2006).

Legend:
[1] = target: T1, wild type androgen receptor (Homo sapiens, UniProt P10275); assay: Androgen receptor transactivation assay in CV-1 cells (MMTV-luciferase reporter); assay type: cell-based; details: CV-1 cells transfected with wild type AR, DHT 1 nM, JC9 0 uM to 7.5 uM
T1 construct: expressed in transfected cells; host or cells: CV-1 (green monkey kidney cells lacking an androgen receptor)
T1 sequence (P10275 1-920): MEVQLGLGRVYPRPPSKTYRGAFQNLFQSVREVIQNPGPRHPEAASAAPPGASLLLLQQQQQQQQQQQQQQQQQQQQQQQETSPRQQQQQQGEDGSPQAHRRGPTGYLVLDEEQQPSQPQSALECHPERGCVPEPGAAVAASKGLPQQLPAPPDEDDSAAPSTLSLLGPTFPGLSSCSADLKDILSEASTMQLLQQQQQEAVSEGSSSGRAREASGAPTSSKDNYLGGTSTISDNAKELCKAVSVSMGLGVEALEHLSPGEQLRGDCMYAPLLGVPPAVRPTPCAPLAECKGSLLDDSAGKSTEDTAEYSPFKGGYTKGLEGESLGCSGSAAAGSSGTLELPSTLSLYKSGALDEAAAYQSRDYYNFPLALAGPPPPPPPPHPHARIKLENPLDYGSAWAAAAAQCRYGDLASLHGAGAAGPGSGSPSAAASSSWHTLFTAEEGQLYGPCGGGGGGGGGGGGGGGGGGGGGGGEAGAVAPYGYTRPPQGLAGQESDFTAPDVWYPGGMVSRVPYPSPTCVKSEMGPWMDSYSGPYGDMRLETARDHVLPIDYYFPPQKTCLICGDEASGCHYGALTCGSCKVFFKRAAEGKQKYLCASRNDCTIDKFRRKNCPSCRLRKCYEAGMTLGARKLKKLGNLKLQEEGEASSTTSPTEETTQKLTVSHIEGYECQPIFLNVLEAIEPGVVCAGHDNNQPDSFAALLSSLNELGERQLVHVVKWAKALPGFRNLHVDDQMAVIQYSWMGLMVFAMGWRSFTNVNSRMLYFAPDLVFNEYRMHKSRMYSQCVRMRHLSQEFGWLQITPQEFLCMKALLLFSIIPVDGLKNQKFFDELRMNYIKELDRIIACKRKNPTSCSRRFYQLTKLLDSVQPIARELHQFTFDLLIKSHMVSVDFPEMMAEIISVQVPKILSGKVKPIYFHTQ
Excerpt: Prostate cancer cells, non-prostate tumor cells, and normal cells can be used in this transient transfection assay, which measures transactivation of the androgen receptor (AR) and can be used to detect a reduction of AR activity caused by AR degradation. In the provided non-limiting example, CV-1 (green monkey kidney cells lacking an androgen receptor) and LNCaP cells (prostate cancer cells containing an endogenous mutant AR), were transfected with a plasmid carrying an androgen response element (ARE) and a reporter gene.
Both the CV-1 and LNCaP cells (obtained from ATCC, Manassas, Va.) were maintained in […] medium supplemented with penicillin (25 units/millilter), streptomycin (25 micrograms/milliliter), and 10% heat-inactivated fetal bovine serum (FBS). Cells were plated in 35-millimeter dishes at a concentration of 1-2×10^5cells/well and cultured at 37 degrees Celsius in an incubator under a 5% carbon dioxide atmosphere. […] The cells were lysed, and luciferase activity of the lysate was measured with the Dual-Luciferase Reporter Assay System (Promega, Madison, Wis.). Data were expressed as relative luciferase activity normalized to the internal luciferase positive control. […]

PPAR gamma = target: T2, PPAR gamma (Homo sapiens, UniProt P37231); assay: Western blot of LNCaP cell lysates, PPAR gamma; assay type: cell-based; details: 1 or 2 micromolar, 24 hours, presence or absence of DHT
T2 construct: endogenous in cells; host or cells: LNCaP
T2 sequence (P37231 1-505): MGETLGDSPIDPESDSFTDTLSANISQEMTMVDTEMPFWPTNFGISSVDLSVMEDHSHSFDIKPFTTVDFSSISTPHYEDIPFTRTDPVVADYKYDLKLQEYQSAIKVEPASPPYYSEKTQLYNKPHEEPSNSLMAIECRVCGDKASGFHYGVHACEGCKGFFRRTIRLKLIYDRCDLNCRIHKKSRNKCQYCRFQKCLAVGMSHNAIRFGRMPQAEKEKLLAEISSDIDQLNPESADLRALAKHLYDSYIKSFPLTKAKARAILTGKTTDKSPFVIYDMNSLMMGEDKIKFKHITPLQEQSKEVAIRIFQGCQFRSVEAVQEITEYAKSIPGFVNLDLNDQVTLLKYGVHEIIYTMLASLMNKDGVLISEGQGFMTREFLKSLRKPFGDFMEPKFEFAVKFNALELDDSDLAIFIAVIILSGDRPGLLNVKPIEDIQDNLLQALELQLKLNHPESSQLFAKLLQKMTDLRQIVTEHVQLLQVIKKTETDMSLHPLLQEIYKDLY
Protocol: (§1) Human prostate cancer LNCaP cells and T47D cells were plated at a density of 7×10^5 cells per 60 millimeter tissue culture dish in […] (RPMI) medium containing 10% FBS. The medium was changed to RPMI or DME medium containing 10% charcoal-stripped serum 24 hours later to deplete cellular androgens or estrogens. After another 24 hours, treatment with the test compounds began. The test dose of JC15 was 1 or 2 micromolar and the test does of JC9 was 1, 5 and 10 micromolar. LNCap cells also received dihydrotestosterone (DHT) (3 nanomolar). Control cells received a corresponding amount of the vehicle, dimethylsulfoxide (DMSO) (<0.04%) for an equivalent exposure time. Cells were incubated with JC15 for 24 or 48 hours, and were lysed in 250 microliters of 1×SDS/PAGE loading buffer. Approximately 40 micrograms of total cellular protein was loaded in each lane of a pre-cast gel (NuPAGE, Invitrogen). Protein separation and transfer were performed following the manufacturer's instructions.
(§2) For the prostate cell lysates, androgen receptor (AR) protein was visualized by incubating the resultant membranes with an anti-AR antibody (BD-PharMingen), followed by chemiluminescence detection (ECL Plus, Amersham). […] The resultant protein signals were quantified using densitometry and NIH ImageJ software.

[2] = tested on: prostate-specific antigen (PSA); assay: Western blot of LNCaP cell lysates, PSA; assay type: cell-based, human; details: 1 or 2 micromolar, 24 hours, presence or absence of DHT
Protocol: as §1, §2

| Structure (SMILES) | DHT-induced androgen receptor transcriptional activation (relative luciferase activity) [1] | cellular concentration of PPAR gamma (PPAR gamma) | PSA levels [2] |
| --- | --- | --- | --- |
| COc1ccc(C=CC(=O)C=C(O)C=Cc2ccc(OC)c(OC)c2)cc1OC [JC9, 5-hydroxy-1,7-bis(3,4-dimethoxyphenyl)-1,4,6-heptatrien-3-one] | capable of inhibiting DHT-induced androgen receptor transcriptional activation in a dose dependent manner | – | – |
| CCOC(=O)CCC(C(=O)C=Cc1ccc(O)c(OC)c1)C(=O)C=Cc1ccc(O)c(OC)c1 (stereo not drawn) [JC15, 7-(4-hydroxy-3-methoxyphenyl)-4-[3-(4-hydroxy-3-methoxyphenyl)acryloyl]-5-oxo-hept-6-enoic acid ethyl ester] | – | did not substantially affect | decreased |
